# Results taken from ChEMBL document CHEMBL1144310, “Identification of agonists and antagonists of the human melanocortin-4 receptor from piperazinebenzylamines” (Bioorg Med Chem Lett, 2005).
# Legend:
# Melanocortin receptor 4 [1] = target: T1, Melanocortin receptor 4 (Homo sapiens, UniProt P32245); assay: Binding affinity towards human melanocortin 4 receptor expressed in HEK 293 cells using [125I]NDP-MSH; assay type: cell-based, HEK293
# HEK293 [2] = assay: Agonist activity in stimulation of cAMP accumulation in HEK 293 cells; details: Homo sapiens
# Melanocortin receptor 3 = Melanocortin receptor 3 (Homo sapiens, UniProt P41968); assay: Binding affinity for human melanocortin 3 receptor
# Melanocortin receptor 3, sequence (P41968 whole entry): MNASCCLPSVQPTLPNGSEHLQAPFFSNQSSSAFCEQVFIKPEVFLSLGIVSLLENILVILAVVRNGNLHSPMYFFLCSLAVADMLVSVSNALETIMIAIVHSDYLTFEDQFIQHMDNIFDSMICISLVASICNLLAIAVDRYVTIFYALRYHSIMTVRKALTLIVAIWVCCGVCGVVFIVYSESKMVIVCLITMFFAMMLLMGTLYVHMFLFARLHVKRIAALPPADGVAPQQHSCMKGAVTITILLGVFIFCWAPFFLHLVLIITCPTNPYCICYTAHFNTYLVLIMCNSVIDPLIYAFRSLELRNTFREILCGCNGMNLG
# Melanocortin receptor 4 [3] = target: T1, Melanocortin receptor 4; assay: Inhibitory concentration against Melanocortin 4 receptor
# HEK293 [4] = assay: Inhibition of alpha-MSH-stimulated cAMP production at 10 uM in HEK cell line; assay type: functional; details: Homo sapiens
# Melanocortin receptor 5 = Melanocortin receptor 5 (Homo sapiens, UniProt P33032); assay: Binding affinity for human melanocortin 5 receptor
# Melanocortin receptor 5, sequence (P33032 whole entry): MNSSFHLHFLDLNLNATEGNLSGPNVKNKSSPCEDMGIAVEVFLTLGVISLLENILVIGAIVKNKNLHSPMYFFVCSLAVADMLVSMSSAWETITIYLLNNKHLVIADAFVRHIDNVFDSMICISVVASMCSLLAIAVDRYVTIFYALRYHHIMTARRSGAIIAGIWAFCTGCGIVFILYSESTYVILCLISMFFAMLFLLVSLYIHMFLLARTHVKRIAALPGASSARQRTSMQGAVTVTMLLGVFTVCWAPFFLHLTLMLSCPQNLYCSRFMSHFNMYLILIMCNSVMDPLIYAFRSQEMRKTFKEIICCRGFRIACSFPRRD
# T1 sequence (P32245 whole entry): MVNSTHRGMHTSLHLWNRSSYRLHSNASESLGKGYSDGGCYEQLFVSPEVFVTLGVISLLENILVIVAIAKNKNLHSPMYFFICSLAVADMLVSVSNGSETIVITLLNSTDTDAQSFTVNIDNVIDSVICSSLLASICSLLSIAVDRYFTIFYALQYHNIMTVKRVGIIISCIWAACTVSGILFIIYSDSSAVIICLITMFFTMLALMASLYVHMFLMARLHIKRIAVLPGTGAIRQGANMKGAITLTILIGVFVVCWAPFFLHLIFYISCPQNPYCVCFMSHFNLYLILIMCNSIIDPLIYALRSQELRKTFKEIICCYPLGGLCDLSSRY
Ki (Melanocortin receptor 4 [1]),Structure (SMILES),EC50 (HEK293 [2]),also measured
0.047 µM,CC(NC1CCCNC1)c1ccccc1N1CCN(C(=O)[C@@H](Cc2ccc(Cl)cc2)NC(=O)C2(N)CCc3ccccc32)CC1 (some centres undefined),–,–
0.12 µM,O=C(N[C@H](Cc1ccc(Cl)cc1)C(=O)N1CCN(c2ccccc2CNCCN2CCOCC2)CC1)[C@H]1Cc2ccccc2CN1,0.57 µM,–
0.041 µM,CC(C)COCCCNC(C)c1ccccc1N1CCN(C(=O)[C@@H](Cc2ccc(Cl)cc2)NC(=O)[C@H]2Cc3ccccc3CN2)CC1 (some centres undefined),0.56 µM,–
0.37 µM,O=C(N[C@H](Cc1ccc(Cl)cc1)C(=O)N1CCN(c2ccccc2CNCCCn2ccnc2)CC1)[C@H]1Cc2ccccc2CN1,0.64 µM,–
0.056 µM,CC(NC1CCCNC1)c1ccccc1N1CCN(C(=O)[C@@H](Cc2ccc(Cl)cc2)NC(=O)C(N)Cc2ccccn2)CC1 (some centres undefined),0.22 µM,–
0.0063 µM,CC(NC1CCCNC1)c1ccccc1N1CCN(C(=O)[C@@H](Cc2ccc(Cl)cc2)NC(=O)CC2NCCc3ccccc32)CC1 (some centres undefined),0.031 µM,Ki (Melanocortin receptor 3): 1.9 µM
0.034 µM,CC(NC1CCCNC1)c1ccccc1N1CCN(C(=O)[C@@H](Cc2ccc(Cl)cc2)NC(=O)C(N)c2ccccc2)CC1 (some centres undefined),–,–
0.14 µM,CCOC(=O)CN(C)Cc1ccccc1N1CCN(C(=O)[C@@H](Cc2ccc(Cl)cc2)NC(=O)[C@H]2Cc3ccccc3CN2)CC1,0.21 µM,–
0.12 µM,CC(NC1CCCNC1)c1ccccc1N1CCN(C(=O)[C@@H](Cc2ccc(Cl)cc2)NC(=O)C(N)C2CCc3ccccc32)CC1 (some centres undefined),0.63 µM,–
0.036 µM,O=C(N[C@H](Cc1ccc(Cl)cc1)C(=O)N1CCN(c2ccccc2CNc2ccncc2)CC1)[C@H]1Cc2ccccc2CN1,0.35 µM,–
0.0048 µM,CC(NC1CCCNC1)c1ccccc1N1CCN(C(=O)[C@@H](Cc2ccc(Cl)cc2)NC(=O)c2cnc3ccccc3c2)CC1 (some centres undefined),–,IC50 (Melanocortin receptor 4 [3]): 0.3 µM; inhibition at 10 µM (HEK293 [4]): 38%; Ki (Melanocortin receptor 3): 0.63 µM; Ki (Melanocortin receptor 5): 0.6 µM
0.03 µM,CC(NC1CCCNC1)c1ccccc1N1CCN(C(=O)[C@@H](Cc2ccc(Cl)cc2)NC(=O)Cc2ccccc2)CC1 (some centres undefined),–,–
0.089 µM,N[C@H]1CCCC[C@@H]1NCc1ccccc1N1CCN(C(=O)[C@@H](Cc2ccc(Cl)cc2)NC(=O)[C@H]2Cc3ccccc3CN2)CC1,0.39 µM,–
0.053 µM,O=C(N[C@H](Cc1ccc(Cl)cc1)C(=O)N1CCN(c2ccccc2CN2CCOCC2)CC1)[C@H]1Cc2ccccc2CN1,0.36 µM,–
0.24 µM,CN1CCN(Cc2ccccc2N2CCN(C(=O)[C@@H](Cc3ccc(Cl)cc3)NC(=O)[C@H]3Cc4ccccc4CN3)CC2)CC1,0.72 µM,–
0.078 µM,O=C(N[C@H](Cc1ccc(Cl)cc1)C(=O)N1CCN(c2ccccc2CN2CCCNCC2)CC1)[C@H]1Cc2ccccc2CN1,0.21 µM,–
–,CN(C)CCC(=O)N[C@H](Cc1ccc(Cl)cc1)C(=O)N1CCC(Cn2cncn2)(C2CCCCC2)CC1,0.04 µM,–
0.27 µM,O=C(N[C@H](Cc1ccc(Cl)cc1)C(=O)N1CCN(c2ccccc2CNCCCN2CCCC2=O)CC1)[C@H]1Cc2ccccc2CN1,0.36 µM,–
–,CC(NC1CCCNC1)c1ccccc1N1CCN(C(=O)[C@@H](Cc2ccc(Cl)cc2)NC(=O)[C@H]2Cc3ccccc3CN2)CC1 (some centres undefined),0.0047 µM,–
0.033 µM,CC(NC1CCCNC1)c1ccccc1N1CCN(C(=O)[C@@H](Cc2ccc(Cl)cc2)NC(=O)CCc2ccccc2)CC1 (some centres undefined),–,–
0.049 µM,CC(NC1CCCNC1)c1ccccc1N1CCN(C(=O)[C@@H](Cc2ccc(Cl)cc2)NC(=O)C(N)Cc2cccnc2)CC1 (some centres undefined),–,–
0.087 µM,CC(NCCN1CCOCC1)c1ccccc1N1CCN(C(=O)[C@@H](Cc2ccc(Cl)cc2)NC(=O)[C@H]2Cc3ccccc3CN2)CC1 (some centres undefined),0.23 µM,–
0.024 µM,CC(NC1CCCNC1)c1ccccc1N1CCN(C(=O)[C@@H](Cc2ccc(Cl)cc2)NC(=O)C2(N)Cc3ccccc3C2)CC1 (some centres undefined),0.44 µM,–
–,O=C(N[C@H](Cc1ccc(Cl)cc1)C(=O)N1CCN(c2ccccc2CNCCc2cccs2)CC1)[C@H]1Cc2ccccc2CN1,0.36 µM,–
0.11 µM,CC(C)COCCCNCc1ccccc1N1CCN(C(=O)[C@@H](Cc2ccc(Cl)cc2)NC(=O)[C@H]2Cc3ccccc3CN2)CC1,0.52 µM,–
0.022 µM,CN(C)CCN(Cc1ccccc1)Cc1ccccc1N1CCN(C(=O)[C@@H](Cc2ccc(Cl)cc2)NC(=O)[C@H]2Cc3ccccc3CN2)CC1,0.55 µM,–
0.01 µM,CC(NC1CCCNC1)c1ccccc1N1CCN(C(=O)[C@@H](Cc2ccc(Cl)cc2)NC(=O)C2(N)CCc3ccccc3C2)CC1 (some centres undefined),0.33 µM,–
0.052 µM,CC(NC1CCCNC1)c1ccccc1N1CCN(C(=O)[C@@H](Cc2ccc(Cl)cc2)NC(=O)C(N)Cc2ccccc2)CC1 (some centres undefined),0.4 µM,–
0.16 µM,O=C(N[C@H](Cc1ccc(Cl)cc1)C(=O)N1CCN(c2ccccc2CNCCCN2CCCCCC2)CC1)[C@H]1Cc2ccccc2CN1,0.57 µM,–
